Experimental data from patent US7947717B2 (priority 2008, dated 2011).
Where two headings read alike, the source gives them in different places.

Experiments:
BoNT A = BoNT A (Clostridium botulinum, UniProt P0DPI0); assay: biochemical
MMP-2 = biological target: T1, MMP-2 (Homo sapiens, UniProt P08253); assay: MMP-2 assay (Anaspec kit); format: biochemical
T1 construct: purchased Anaspec, Inc. 71151/71155
T1 sequence (P08253 110-660): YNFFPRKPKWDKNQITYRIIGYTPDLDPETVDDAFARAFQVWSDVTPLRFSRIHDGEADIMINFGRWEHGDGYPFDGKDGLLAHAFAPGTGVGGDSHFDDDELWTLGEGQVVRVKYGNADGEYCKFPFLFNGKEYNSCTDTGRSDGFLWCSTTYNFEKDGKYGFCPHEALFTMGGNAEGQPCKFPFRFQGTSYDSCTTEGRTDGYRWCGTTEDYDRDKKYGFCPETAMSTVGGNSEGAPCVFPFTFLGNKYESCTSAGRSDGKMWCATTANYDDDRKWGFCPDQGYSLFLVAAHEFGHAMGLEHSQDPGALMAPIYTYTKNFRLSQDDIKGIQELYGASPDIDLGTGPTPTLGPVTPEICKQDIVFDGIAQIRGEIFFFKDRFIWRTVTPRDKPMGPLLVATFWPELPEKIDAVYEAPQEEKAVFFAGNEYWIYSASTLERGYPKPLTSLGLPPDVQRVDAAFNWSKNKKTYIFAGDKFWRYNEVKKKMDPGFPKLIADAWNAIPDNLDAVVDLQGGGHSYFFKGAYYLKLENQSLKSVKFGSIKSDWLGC

lethal factor (LF) = lethal factor (LF) (Bacillus anthracis, UniProt P15917); assay: biochemical; format: biochemical
Chain of lethal factor (LF) (P15917 34-809 limits assumed): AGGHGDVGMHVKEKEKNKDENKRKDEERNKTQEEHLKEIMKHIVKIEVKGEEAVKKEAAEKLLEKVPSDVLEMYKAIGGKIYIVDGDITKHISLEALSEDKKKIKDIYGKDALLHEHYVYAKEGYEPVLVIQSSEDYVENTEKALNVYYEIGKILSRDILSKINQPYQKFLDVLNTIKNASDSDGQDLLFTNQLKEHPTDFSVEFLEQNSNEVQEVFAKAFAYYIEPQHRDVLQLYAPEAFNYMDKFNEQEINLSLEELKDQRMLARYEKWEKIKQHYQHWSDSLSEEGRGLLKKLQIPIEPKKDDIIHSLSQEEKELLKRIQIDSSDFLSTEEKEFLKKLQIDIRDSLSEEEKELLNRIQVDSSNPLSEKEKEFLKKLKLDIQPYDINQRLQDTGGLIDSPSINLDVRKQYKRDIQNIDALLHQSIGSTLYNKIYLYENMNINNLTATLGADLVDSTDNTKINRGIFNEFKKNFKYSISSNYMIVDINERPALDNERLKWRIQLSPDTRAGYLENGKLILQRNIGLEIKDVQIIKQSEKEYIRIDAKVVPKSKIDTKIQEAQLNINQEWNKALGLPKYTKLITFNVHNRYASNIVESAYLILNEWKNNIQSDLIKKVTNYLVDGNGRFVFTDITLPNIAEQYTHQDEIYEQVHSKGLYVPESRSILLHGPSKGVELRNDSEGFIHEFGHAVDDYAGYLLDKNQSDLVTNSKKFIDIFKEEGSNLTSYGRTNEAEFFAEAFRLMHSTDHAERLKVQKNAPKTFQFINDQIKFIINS

MMP-9 = biological target: T2, MMP-9 (Homo sapiens, UniProt P14780); assay: MMP-9 assay (Anaspec kit); format: biochemical
T2 construct: purchased Anaspec, Inc. 71151/71155
T2 sequence (P14780 107-707 limits assumed): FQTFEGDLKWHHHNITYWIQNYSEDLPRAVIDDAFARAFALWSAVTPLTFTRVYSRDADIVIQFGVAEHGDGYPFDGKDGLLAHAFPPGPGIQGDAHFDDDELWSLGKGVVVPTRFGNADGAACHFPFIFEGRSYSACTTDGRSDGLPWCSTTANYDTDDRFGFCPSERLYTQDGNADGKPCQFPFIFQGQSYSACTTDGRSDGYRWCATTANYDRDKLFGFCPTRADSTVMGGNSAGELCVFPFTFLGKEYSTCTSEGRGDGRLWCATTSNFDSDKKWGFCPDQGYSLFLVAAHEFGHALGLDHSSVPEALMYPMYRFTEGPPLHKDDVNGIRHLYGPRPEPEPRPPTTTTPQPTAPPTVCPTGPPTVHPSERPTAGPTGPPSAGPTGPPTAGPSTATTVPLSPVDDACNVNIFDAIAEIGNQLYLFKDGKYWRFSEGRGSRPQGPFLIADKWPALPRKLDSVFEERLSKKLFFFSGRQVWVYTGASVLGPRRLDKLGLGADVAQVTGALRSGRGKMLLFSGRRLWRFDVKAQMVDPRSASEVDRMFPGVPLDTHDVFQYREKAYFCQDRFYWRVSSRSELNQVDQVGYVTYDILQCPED

physchem = conditions: 23 °C, pH 7.4, aqueous with cosolvent or surfactant or cyclodextrin, kinetic from dmso stock

Chain of BoNT A (P0DPI0 whole entry, looked up): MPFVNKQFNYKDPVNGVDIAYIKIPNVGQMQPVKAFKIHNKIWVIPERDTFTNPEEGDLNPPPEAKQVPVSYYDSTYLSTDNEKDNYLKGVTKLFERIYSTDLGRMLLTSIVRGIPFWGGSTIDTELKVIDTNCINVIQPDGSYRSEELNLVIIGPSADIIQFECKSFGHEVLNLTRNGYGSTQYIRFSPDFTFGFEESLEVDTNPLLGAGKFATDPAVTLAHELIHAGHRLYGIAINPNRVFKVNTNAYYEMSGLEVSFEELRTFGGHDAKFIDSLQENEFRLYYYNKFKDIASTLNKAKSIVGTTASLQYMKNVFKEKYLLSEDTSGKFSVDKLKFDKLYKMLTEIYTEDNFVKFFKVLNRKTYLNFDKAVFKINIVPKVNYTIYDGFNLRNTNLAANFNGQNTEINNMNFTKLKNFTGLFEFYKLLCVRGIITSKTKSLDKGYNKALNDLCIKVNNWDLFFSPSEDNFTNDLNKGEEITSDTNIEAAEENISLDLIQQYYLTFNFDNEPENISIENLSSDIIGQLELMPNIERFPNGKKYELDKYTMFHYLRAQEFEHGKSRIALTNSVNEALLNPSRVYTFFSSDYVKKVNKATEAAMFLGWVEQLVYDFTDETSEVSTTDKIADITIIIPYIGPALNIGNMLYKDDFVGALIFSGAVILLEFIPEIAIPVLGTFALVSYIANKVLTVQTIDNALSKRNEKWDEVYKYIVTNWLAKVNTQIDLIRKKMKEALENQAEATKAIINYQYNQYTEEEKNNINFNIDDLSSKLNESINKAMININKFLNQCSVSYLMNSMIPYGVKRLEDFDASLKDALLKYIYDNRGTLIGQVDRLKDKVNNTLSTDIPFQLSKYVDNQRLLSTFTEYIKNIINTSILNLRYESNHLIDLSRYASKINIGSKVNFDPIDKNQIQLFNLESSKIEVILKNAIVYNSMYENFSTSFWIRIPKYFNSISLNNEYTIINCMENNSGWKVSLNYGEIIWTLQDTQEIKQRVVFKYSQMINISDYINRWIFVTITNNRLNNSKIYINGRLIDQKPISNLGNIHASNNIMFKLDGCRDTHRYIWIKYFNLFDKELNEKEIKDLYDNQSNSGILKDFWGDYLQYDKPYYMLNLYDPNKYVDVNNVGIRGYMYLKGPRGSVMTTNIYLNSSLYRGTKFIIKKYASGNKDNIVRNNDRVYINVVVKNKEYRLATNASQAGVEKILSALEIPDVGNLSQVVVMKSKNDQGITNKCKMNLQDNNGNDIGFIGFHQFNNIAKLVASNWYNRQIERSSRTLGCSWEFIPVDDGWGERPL

## O=C(O)CN1C(=O)/C(=C/c2cc(-c3ccco3)on2)SC1=S [Compound 20, (Z)-2-(5-((5-(furan-2-yl)isoxazol-3-yl)methylene)-4-oxo-2-thioxothiazolidin-3-yl)acetic acid]
BoNT A
  IC50: > 200 µM
MMP-2; read-out: MMP2 IC50
  IC50: 39.4 µM
Lethal factor (LF); pH 7.4, read-out: LF IC50
  IC50: 17 µM

## O=C(O)CN1C(=O)C(=Cc2cc(-c3ccccc3)on2)SC1=S [Compound 21, 2-(4-oxo-2-thioxo-5-((5-phenylisoxazol-3-yl)methylene)thiazolidin-3-yl)acetic acid]
BoNT A
  IC50: > 200 µM
MMP-2
  IC50: > 100 µM
MMP-9
  IC50: 50 µM
Lethal factor (LF)
  IC50: 18.7 µM

## Cc1ccc(-c2cc(C=C3SC(=S)N(CC(=O)O)C3=O)no2)cc1 [Compound 22, 2-(4-oxo-2-thioxo-5-((5-p-tolylisoxazol-3-yl)methylene)thiazolidin-3-yl)acetic acid]
BoNT A
  IC50: 130 µM
MMP-2
  IC50: < 10 µM
MMP-9
  IC50: > 100 µM
Lethal factor (LF)
  IC50: 5.9 µM

## COc1ccc(-c2cc(C=C3SC(=S)N(CC(=O)O)C3=O)no2)cc1 [Compound 23, 2-(5-((5-(4-methoxyphenyl)isoxazol-3-yl)methylene)-4-oxo-2-thioxothiazolidin-3-yl)acetic acid]
BoNT A
  IC50: 194 µM
MMP-2
  IC50: 6.62 µM
MMP-9
  IC50: > 100 µM

## O=C(O)CN1C(=O)C(=Cc2cc(-c3ccc(Cl)cc3)on2)SC1=S [Compound 24, 2-(5-((5-(4-chlorophenyl)isoxazol-3-yl)methylene)-4-oxo-2-thioxothiazolidin-3-yl)acetic acid]
BoNT A
  IC50: 82.7 µM
MMP-2
  IC50: 19.2 µM
MMP-9
  IC50: > 100 µM

## O=C(O)CN1C(=O)C(=Cc2cc(-c3ccc(F)cc3)on2)SC1=S [Compound 25, 2-(5-((5-(4-fluorophenyl)isoxazol-3-yl)methylene)-4-oxo-2-thioxothiazolidin-3-yl)acetic acid]
BoNT A
  IC50: > 200 µM
MMP-2
  IC50: 10 µM
MMP-9
  IC50: > 100 µM
Lethal factor (LF)
  IC50: 12.4 µM

## O=C(O)CN1C(=O)C(=Cc2cc(-c3ccc(Br)cc3)on2)SC1=S [Compound 26, 2-(5-((5-(4-bromophenyl)isoxazol-3-yl)methylene)-4-oxo-2-thioxothiazolidin-3-yl)acetic acid]
BoNT A
  IC50: > 200 µM
MMP-2
  IC50: > 100 µM
MMP-9
  IC50: 27.4 µM
Lethal factor (LF)
  IC50: 17.3 µM

## O=C(O)CN1C(=O)/C(=C/c2cn(-c3ccc(F)cc3F)nc2-c2cccnc2)SC1=S [Compound 32, (Z)-2-(5-((1-(2,4-difluorophenyl)-3-(pyridin-3-yl)-1H-pyrazol-4-yl)methylene)-4-oxo-2-thioxothiazolidin-3-yl)acetic acid]
BoNT A
  IC50: 71.5 µM
MMP-2
  IC50: 13.7 µM
Lethal factor (LF); pH 7.4, read-out: LF IC50
  IC50: 2.99 µM

## O=C(O)CN1C(=O)/C(=C/c2cn(-c3ccc(F)cc3)nc2-c2ccc(F)cc2)SC1=S [Compound 33, (Z)-2-(5-((1,3-bis(4-fluorophenyl)-1H-pyrazol-4-yl)methylene)-4-oxo-2-thioxothiazolidin-3-yl)acetic acid]
BoNT A
  IC50: 52.6 µM
MMP-2
  IC50: 39.4 µM
Lethal factor (LF); pH 7.4, read-out: LF IC50
  IC50: 4.22 µM

## O=C(O)CN1C(=O)/C(=C/c2cn(-c3ccc(Br)cc3)nc2-c2ccc(Br)cc2)SC1=S [Compound 35, (Z)-2-(5-((1,3-bis(4-bromophenyl)-1H-pyrazol-4-yl)methylene)-4-oxo-2-thioxothiazolidin-3-yl)acetic acid]
BoNT A
  IC50: 5.45 µM
MMP-2
  inhibition of MMP-2 (in words): did not inhibit
MMP-9
  inhibition of MMP-9 (in words): did not inhibit
Lethal factor (LF); pH 7.4, read-out: LF IC50
  IC50: 3.35 µM

## O=C1/C(=C/c2cn(-c3ccccc3)nc2-c2ccc(Cl)cc2)SC(=S)N1CCS(=O)(=O)O [Compound 41, (Z)-2-(5-((3-(4-chlorophenyl)-1-phenyl-1H-pyrazol-4-yl)methylene)-4-oxo-2-thioxothiazolidin-3-yl)ethanesulfonic acid]
BoNT A
  IC50: > 200 µM
MMP-2
  IC50: 26.9 µM
Lethal factor (LF); pH 7.4, read-out: LF IC50
  IC50: 3.66 µM

## CCOc1ccc(-c2nn(-c3ccccc3)cc2/C=C2\SC(=S)N(CC(=O)O)C2=O)cc1F [Compound 46, (Z)-2-(5-((3-(4-ethoxy-3-fluorophenyl)-1-phenyl-1H-pyrazol-4-yl)methylene)-4-oxo-2-thioxothiazolidin-3-yl)acetic acid]
BoNT A
  IC50: > 200 µM
Lethal factor (LF); pH 7.4, read-out: LF IC50
  IC50: 3.45 µM

## O=C(O)CN1C(=O)/C(=C/c2sc(Br)c3c2OCCO3)SC1=S [Compound 47, (Z)-2-(5-((7-bromo-2,3-dihydrothieno[3,4-b][1,4]dioxin-5-yl)methylene)4-oxo-2-thioxothiazolidin-3-yl)acetic acid]
BoNT A
  IC50: > 200 µM
MMP-2; read-out: MMP2 IC50
  IC50: 50.6 µM
Lethal factor (LF); pH 7.4, read-out: LF IC50
  IC50: 11.4 µM

## O=C(O)CN1C(=O)/C(=C/c2ccc(N3CCOCC3)s2)SC1=S [Compound 48, (Z)-2-(5-((5-morpholinothiophen-2-yl)methylene)-4-oxo-2-thioxothiazolidin-3-yl)acetic acid]
BoNT A
  IC50: 112 µM
MMP-2; read-out: MMP2 IC50
  IC50: 47.1 µM
MMP-9; read-out: MMP9 IC50
  IC50: 64.9 µM
Lethal factor (LF); pH 7.4, read-out: LF IC50
  IC50: 32.5 µM

## O=C(O)CN1C(=O)/C(=C/c2ccc(-c3ccccc3)cc2)SC1=S [Compound 49, (Z)-2-(5-(4-phenylbenzylidene)-4-oxo-2-thioxothiazolidin-3-yl)acetic acid]
BoNT A
  IC50: 54.6 µM
Lethal factor (LF); pH 7.4, read-out: LF IC50
  IC50: 6.2 µM

## O=C(O)CN1C(=O)/C(=C/c2cccc(N3CCCC3)c2)SC1=S [Compound 50, (Z)-2-(5-(3-(pyrrolidin-1-yl)benzylidene)-4-oxo-2-thioxothiazolidin-3-yl)acetic acid]
BoNT A
  IC50: > 200 µM
Lethal factor (LF); pH 7.4, read-out: LF IC50
  IC50: 28.1 µM

## O=C(O)CN1C(=O)/C(=C/c2cccc(-n3cccn3)c2)SC1=S [Compound 52, (Z)-2-(5-(3-(1H-pyrazol-1-yl)benzylidene)-4-oxo-2-thioxothiazolidin-3-yl)acetic acid]
BoNT A
  IC50: > 200 µM
Lethal factor (LF); pH 7.4, read-out: LF IC50
  IC50: 27.9 µM

## O=C(O)CN1C(=O)/C(=C/c2ccc3c(c2)OCO3)SC1=S [Compound 53, (Z)-2-(5-(benzo[d][1,3]dioxol-5-ylmethylene)-4-oxo-2-thioxothiazolidin-3-yl)acetic acid]
BoNT A
  IC50: > 200 µM
Lethal factor (LF); pH 7.4, read-out: LF IC50
  IC50: 83.3 µM

## Cc1ccc2cc(/C=C3\SC(=S)N(CC(=O)O)C3=O)ccc2n1 [Compound 54, (Z)-2-(5-((2-methylquinolin-6-yl)methylene)-4-oxo-2-thioxothiazolidin-3-yl)acetic acid]
BoNT A
  IC50: > 200 µM
MMP-2; read-out: MMP2 IC50
  IC50: 18 µM
Lethal factor (LF); pH 7.4, read-out: LF IC50
  IC50: 5.25 µM

## O=C(O)CN1C(=O)/C(=C/c2cccc3c2oc2ccccc23)SC1=S [Compound 55, (Z)-2-(5-(dibenzofuran-6-ylmethylene)-4-oxo-2-thioxothiazolidin-3-yl)acetic acid]
BoNT A
  IC50: 160 µM
Lethal factor (LF); pH 7.4, read-out: LF IC50
  IC50: 2.96 µM

## O=C(O)CN1C(=O)/C(=C/c2cccc(Br)n2)SC1=S [Compound 56, (Z)-2-(5-((6-bromopyridin-2-yl)methylene)-4-oxo-2-thioxothiazolidin-3-yl)acetic acid]
BoNT A
  IC50: > 200 µM
Lethal factor (LF); pH 7.4, read-out: LF IC50
  IC50: 58 µM

## O=C(O)CN1C(=O)/C(=C/c2csc3ccccc23)SC1=S [Compound 57, (Z)-2-(5-(benzo[b]thiophen-3-ylmethylene)-4-oxo-2-thioxothiazolidin-3-yl)acetic acid]
BoNT A
  IC50: > 200 µM
Lethal factor (LF); pH 7.4, read-out: LF IC50
  IC50: 13 µM

## O=C(O)CN1C(=O)/C(=C/c2csc3ccc(Br)cc23)SC1=S [Compound 58, (Z)-2-(5-((5-bromobenzo[b]thiophen-3-yl)methylene)-4-oxo-2-thioxothiazolidin-3-yl)acetic acid]
BoNT A
  IC50: 74.3 µM
MMP-2; read-out: MMP2 IC50
  IC50: 46.9 µM
MMP-9; read-out: MMP9 IC50
  IC50: 64.9 µM
Lethal factor (LF); pH 7.4, read-out: LF IC50
  IC50: 10.4 µM

## O=C(O)CN1C(=O)/C(=C/c2cc3nccnc3s2)SC1=S [Compound 59]
BoNT A
  IC50: > 200 µM
Lethal factor (LF); pH 7.4, read-out: LF IC50
  IC50: 24.9 µM

## O=C(O)CN1C(=O)/C(=C/c2c[nH]c3ccccc23)SC1=S [Compound 60, (Z)-2-(5-((1H-indol-3-yl)methylene)-4-oxo-2-thioxothiazolidin-3-yl)acetic acid]
BoNT A
  IC50: > 200 µM
Lethal factor (LF); pH 7.4, read-out: LF IC50
  IC50: 38.7 µM

## O=C(O)CN1C(=O)/C(=C/c2c[nH]c3ccc(Br)cc23)SC1=S [Compound 61, (Z)-2-(5-((5-bromo-1H-indol-3-yl)methylene)-4-oxo-2-thioxothiazolidin-3-yl)acetic acid]
BoNT A
  IC50: > 200 µM
Lethal factor (LF); pH 7.4, read-out: LF IC50
  IC50: 7.04 µM

## O=C(O)CN1C(=O)/C(=C2/C(=O)N(CC(=O)Nc3cccc(Cl)c3)c3ccccc32)SC1=S [Compound 62, (Z)-2-(5-(1-(2-(3-chlorophenylamino)-2-oxoethyl)-2-oxoindolin-3-ylidene)-4-oxo-2-thioxothiazolidin-3-yl)acetic acid]
BoNT A
  IC50: > 200 µM
MMP-2
  IC50: > 25 µM
MMP-9
  IC50: > 25 µM
Lethal factor (LF); pH 7.4, read-out: LF IC50
  IC50: 4.4 µM

## COCCc1ccc(OCC(O)CNC(C)C)cc1 (stereo not shown) [Metoprolol]
other
  Pampa (d) permeability class: High

## CC(C)NCC(O)COc1cccc2ccccc12 (stereo not shown) [Propranolol]
other
  Pampa (d) permeability class: High

## CC(=O)Oc1ccccc1C(=O)O [acetylsalicylic acid, reference compound]
physchem
  solubility: > 0.1 mg/mL

## Lucifer Yellow
other
  Pampa (d) permeability class: Low
